According to ChEMBL document CHEMBL1155509, “3-Indolyl sultams as selective CRTh2 antagonists” (Bioorg Med Chem Lett, 2010):

Tests used:
[1] = target: T1, Prostaglandin D2 receptor 2 (Homo sapiens, UniProt Q9Y5Y4); test: Binding affinity to human prostaglandin D2 receptor by cell based radioligand displacement assay
T1 sequence (Q9Y5Y4 whole entry): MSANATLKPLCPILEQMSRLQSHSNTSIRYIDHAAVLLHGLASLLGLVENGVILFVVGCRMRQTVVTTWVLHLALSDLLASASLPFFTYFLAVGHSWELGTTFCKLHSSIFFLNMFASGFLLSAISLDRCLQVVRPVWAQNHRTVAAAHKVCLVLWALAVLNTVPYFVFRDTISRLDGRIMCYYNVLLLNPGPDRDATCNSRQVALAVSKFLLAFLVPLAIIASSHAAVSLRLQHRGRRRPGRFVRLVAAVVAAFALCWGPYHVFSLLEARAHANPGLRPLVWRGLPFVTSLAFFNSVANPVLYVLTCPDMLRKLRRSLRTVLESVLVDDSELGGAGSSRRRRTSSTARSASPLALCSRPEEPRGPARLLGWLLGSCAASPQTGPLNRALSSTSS

Thromboxane A2 receptor = target: T2, Thromboxane A2 receptor (Homo sapiens, UniProt P21731); test: Binding affinity to human thromboxane A2 receptor by radioligand displacement assay
T2 sequence (P21731 whole entry): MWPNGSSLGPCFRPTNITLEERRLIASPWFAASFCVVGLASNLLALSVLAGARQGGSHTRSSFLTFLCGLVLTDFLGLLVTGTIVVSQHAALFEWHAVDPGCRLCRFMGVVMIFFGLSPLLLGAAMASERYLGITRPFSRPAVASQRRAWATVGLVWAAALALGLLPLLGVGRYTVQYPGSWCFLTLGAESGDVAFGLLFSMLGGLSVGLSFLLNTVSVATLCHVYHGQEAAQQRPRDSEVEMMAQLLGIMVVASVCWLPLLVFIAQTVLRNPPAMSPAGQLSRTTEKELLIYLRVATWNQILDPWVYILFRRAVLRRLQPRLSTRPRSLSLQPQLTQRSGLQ

[2] = target: T3, Prostaglandin D2 receptor (Homo sapiens) (UniProt Q13258); test: Binding affinity to human prostaglandin D1 receptor at 10 uM by radioligand displacement assay
T3 sequence (whole entry): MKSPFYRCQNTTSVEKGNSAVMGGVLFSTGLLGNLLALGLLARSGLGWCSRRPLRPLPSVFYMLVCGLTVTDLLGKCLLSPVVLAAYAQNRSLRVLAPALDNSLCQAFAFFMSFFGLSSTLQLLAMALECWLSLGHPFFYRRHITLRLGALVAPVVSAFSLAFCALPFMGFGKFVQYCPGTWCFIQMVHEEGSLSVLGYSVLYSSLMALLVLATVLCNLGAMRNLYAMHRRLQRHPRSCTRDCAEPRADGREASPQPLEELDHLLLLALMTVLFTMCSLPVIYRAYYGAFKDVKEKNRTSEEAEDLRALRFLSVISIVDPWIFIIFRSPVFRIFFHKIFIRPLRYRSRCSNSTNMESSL

[3] = target: T4, Thromboxane A2 receptor (Homo sapiens) (UniProt P21731); test: Binding affinity to human thromboxane A2 receptor at 10 uM by radioligand displacement assay
T4 sequence (whole entry): T2 sequence (P21731 whole entry)

[4] = target: T1, Prostaglandin D2 receptor 2; test: Antagonist activity at human prostaglandin D2 receptor assessed as inhibition of PGD2-induced receptor activation by cell based FLIPR assay; type: functional

| SMILES | Ki [1] [nM] | other results |
| --- | --- | --- |
| Cc1noc(C)c1CN1C(c2c(C)n(CC(=O)O)c3ccccc23)CCS1(=O)=O (racemic) | 23 |  |
| Cc1ccc2c(c1)c(C1NS(=O)(=O)c3ccccc31)c(C)n2CC(=O)O (racemic) | 1500 |  |
| Cc1c(C2NS(=O)(=O)c3ccccc32)c2cc(Cl)ccc2n1CC(=O)O (racemic) | 690 |  |
| Cc1ccc2c(c1)c(C1NS(=O)(=O)c3ccccc31)cn2CC(=O)O (racemic) | 2900 |  |
| Cc1noc(C)c1CN1C(c2c(C)n(CC(=O)O)c3ccccc23)c2ccccc2S1(=O)=O (racemic) | 12 | inhibition [3]: 0%; inhibition [2]: 0%; Ki [4]: 28 nM |
| Cc1noc(C)c1CN1C(c2c(C)n(CC(=O)O)c3ccc(Cl)cc23)c2ccccc2S1(=O)=O (racemic) | 8 | inhibition [3]: 0%; inhibition [2]: 15% |
| Cc1noc(C)c1CN1C(C)(c2c(C)n(CC(=O)O)c3ccccc23)c2ccccc2S1(=O)=O (racemic) | 38 |  |
| Cc1c(C2c3ccccc3S(=O)(=O)N2C(C)C)c2ccccc2n1CC(=O)O (racemic) | 920 |  |
| Cc1c(C2NS(=O)(=O)c3ccccc32)c2cc(F)ccc2n1CC(=O)O (racemic) | 430 |  |
| N#Cc1ccc2c(c1)c(C1NS(=O)(=O)c3ccccc31)cn2CC(=O)O (racemic) | 2000 |  |
| Cc1c(C2NS(=O)(=O)c3ccccc32)c2ccccc2n1CC(=O)O (racemic) | 2800 |  |

Continued, in another order:

| Ki [1] [nM] | SMILES | other results |
| --- | --- | --- |
| 18 | Cc1noc(C)c1CN1C(c2cn(CC(=O)O)c3ccccc23)c2ccccc2S1(=O)=O (racemic) |  |
| 35 | Cc1c(C2c3ccccc3S(=O)(=O)N2CCOc2ccc(Cl)cc2)c2ccccc2n1CC(=O)O (racemic) | Ki (Thromboxane A2 receptor): 3400 nM; inhibition [2]: 28% |
| 9200 | O=C(O)Cn1cc(C2NS(=O)(=O)c3ccccc32)c2ccccc21 (racemic) |  |
| 2900 | O=C(O)Cn1cc(C2NS(=O)(=O)c3ccccc32)c2cc(Cl)ccc21 (racemic) |  |
| 1400 | Cc1c(C2c3ccccc3S(=O)(=O)N2CCCOc2ccccc2)c2ccccc2n1CC(=O)O (racemic) |  |
| 13 | Cc1noc(-c2ccccc2)c1CN1C(c2c(C)n(CC(=O)O)c3ccccc23)c2ccccc2S1(=O)=O (racemic) |  |
| 220 | Cc1c(C2c3ccccc3S(=O)(=O)N2CCc2ccccc2)c2ccccc2n1CC(=O)O (racemic) |  |
| 29 | Cc1c(C2c3ccccc3S(=O)(=O)N2CCOc2ccccc2)c2ccccc2n1CC(=O)O (racemic) | Ki (Thromboxane A2 receptor): 7800 nM; inhibition [2]: 0% |
| 630 | O=C(O)Cn1cc(C2c3ccccc3S(=O)(=O)N2CCc2ccccc2)c2ccccc21 (racemic) |  |
| 560 | Cc1c(C2c3ccccc3S(=O)(=O)N2CCC(C)C)c2ccccc2n1CC(=O)O (racemic) |  |
| 480 | Cc1c(C2c3ccccc3S(=O)(=O)N2c2ccccc2)c2ccccc2n1CC(=O)O (racemic) |  |
| 8100 | CN1C(c2cn(CC(=O)O)c3ccccc23)c2ccccc2S1(=O)=O (racemic) |  |
| 1100 | O=C(O)Cn1cc(C2c3ccccc3S(=O)(=O)N2Cc2ccccc2)c2ccccc21 (racemic) |  |
| 1400 | Cc1c(C2c3ccccc3S(=O)(=O)N2CCO)c2ccccc2n1CC(=O)O (racemic) |  |
| 2300 | CC(C)CCN1C(c2cn(CC(=O)O)c3ccccc23)c2ccccc2S1(=O)=O (racemic) |  |
